A word on the koff: it is the rate constant with which the complex falls apart. As usually defined, the kon is the rate constant with which the complex forms.

Experiment [1] concerns the target T1, Oxytocin receptor (Homo sapiens, UniProt P30559).
T1 sequence (P30559 whole entry): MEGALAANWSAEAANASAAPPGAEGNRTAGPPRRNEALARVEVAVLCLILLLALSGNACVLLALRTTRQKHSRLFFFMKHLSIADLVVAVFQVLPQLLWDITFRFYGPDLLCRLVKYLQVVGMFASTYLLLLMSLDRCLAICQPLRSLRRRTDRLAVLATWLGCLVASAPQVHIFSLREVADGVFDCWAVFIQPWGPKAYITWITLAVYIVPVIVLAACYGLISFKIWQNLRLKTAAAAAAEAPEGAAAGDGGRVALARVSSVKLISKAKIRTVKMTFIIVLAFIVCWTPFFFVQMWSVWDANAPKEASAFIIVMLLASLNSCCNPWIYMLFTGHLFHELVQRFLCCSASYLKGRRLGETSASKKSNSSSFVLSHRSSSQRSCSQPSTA
The experiment is described as follows: Binding affinity to SNAP-tagged oxytocin receptor (unknown origin) expressed in HEK293 cells assessed as dissociation constant after 5 to 120 mins by TR-FRET assay.

The target in experiment [2] is T1, Oxytocin receptor. Kind of experiment: Binding affinity to SNAP-tagged oxytocin receptor (unknown origin) expressed in HEK293 cells assessed as association constant after 5 to 120 mins by TR-FRET assay. The conditions noted are these: read-out: kon (M-1-s-1). Background: In TR-FRET formats the signal depends on donor and acceptor labels being close together.

`CCN1\C(=C/C=C/C=C/C2=[N+](CC)c3cc(S(=O)(=O)[O-])ccc3C2(C)C)C(C)(CCCC(=O)NCCOCCOCCOCCOCc2nnc(N3CC(Oc4ccc(F)cc4Cl)C3)n2-c2ccc(OC)nc2)c2cc(S(=O)(=O)O)ccc21` (centres undefined): the koff on Oxytocin receptor [1] is 0.000182 s⁻¹. On Oxytocin receptor [2], the kon was 67200 M⁻¹ s⁻¹.

Regarding `COc1ccc(-n2c(COCCOCCOCCOCCNC(=O)CCCCCNC(=O)c3ccc(-c4c5ccc(=O)cc-5oc5cc(O)ccc45)c(C(=O)O)c3)nnc2N2CC(Oc3ccc(F)cc3Cl)C2)cn1`, the koff at Oxytocin receptor [1] was determined as 0.000315 s⁻¹. For the same molecule, the kon on Oxytocin receptor [2] is 59500 M⁻¹ s⁻¹.

For the origin of these results see BindingDB's records for doi:10.1021/jm501395b (University of Strasburg, 2015).
